Patent US10765114B2, “4-amino-6-(pyridyl and 2-substitutedphenyl)-picolinates and 6-amino-2-(pyridyl and 2-substitutedphenyl)-pyrimidine-4-carboxylates and their use as herbicides” (Dow AgroSciences LLC, priority 2013, dated 2020)
Where two headings read alike, the source gives them in different places. Values belong to the molecule of their own block, whether it stands above or below them.

What was measured:
[1] = test system: Key Grass and Sedge Weeds as well as Grass Crops; assay: Post-Emergent Test II (Table 6); type: in vivo; conditions: post-emergence, 336 h, 14 days after application; for pest or weed control at 70 g/ha: 70 g ai/ha; for pest or weed control at 140 g/ha: 140 g ai/ha
In short: (§1)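 Growth stage at treatment: first or second true leaf. Application: compound in acetone/DMSO diluted into an adjuvant-containing aqueous mix, sprayed at 187 L/ha at several rates. Assessment: visual 0-100% injury at 14 days against untreated plants.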

[2] = test system: Key Broadleaf Weed and Crop Species; assay: Post-Emergent Test II (Table 5); type: in vivo; conditions: post-emergence, 336 h; for pest or weed control at 70 g/ha: application rate 70 (kg ai/ha; footnote: g ai/ha); for pest or weed control at 140 g/ha: application rate 140 (kg ai/ha; footnote: g ai/ha)
In short: as §1

[3] = CYPSS, read-out: Visual Growth Reduction (%) 14 Days After Application CYPSS
[4] = DIGSA: crabgrass (Digitaria sanguinalis), read-out: Visual Growth Reduction (%) 14 Days After Application DIGSA
[5] = ECHSS, read-out: Visual Growth Reduction (%) 14 Days After Application ECHSS
[6] = ORYSS (crop), read-out: Visual Growth Reduction (%) 14 Days After Application ORYSS
[7] = SETFA: giant foxtail (Setaria faberi), read-out: Visual Growth Reduction (%) 14 Days After Application SETFA
[8] = SORVU: grain sorghum (Sorghum vulgare), read-out: Visual Growth Reduction (%) 14 Days After Application SORVU
[9] = TRZSS (crop), read-out: Visual Growth Reduction (%) 14 Days After Application TRZSS
[10] = ZEAMX: maize, corn (Zea mays), read-out: Visual Growth Reduction (%) 14 Days After Application ZEAMX
[11] = Abutilon theophrasti, ABUTH: velvetleaf (Abutilon theophrasti), read-out: Visual Growth Reduction (%) 14 Days After Application ABUTH
[12] = Amaranthus retroflexus, AMARE: redroot pigweed (Amaranthus retroflexus), read-out: Visual Growth Reduction (%) 14 Days After Application AMARE
[13] = Brassica napus, BRSSS: oilseed rape, canola (Brassica napus), read-out: Visual Growth Reduction (%) 14 Days After Application BRSSS
[14] = Chenopodium album, CHEAL: lambsquarters (Chenopodium album), read-out: Visual Growth Reduction (%) 14 Days After Application CHEAL
[15] = Euphorbia heterophylla, EPHHL: wild poinsettia (Euphorbia heterophylla), read-out: Visual Growth Reduction (%) 14 Days After Application EPHHL
[16] = Helianthus annuus, HELAN: sunflower (Helianthus annuus), read-out: Visual Growth Reduction (%) 14 Days After Application HELAN
[17] = Viola tricolor, VIOTR: wild pansy (Viola tricolor), read-out: Visual Growth Reduction (%) 14 Days After Application VIOTR

melting point: 128 to 134 °C
Structure (SMILES): COC(=O)c1nc(-c2ccc(Cl)c(F)c2C)cc(N)c1Cl [Compound 73]
pest or weed control at 70 g/ha [1, 3]: 95 to 100% | pest or weed control at 140 g/ha [1, 3]: 95 to 100% | pest or weed control at 70 g/ha [1, 4]: 0 to 29% | pest or weed control at 140 g/ha [1, 4]: 0 to 29% | pest or weed control at 70 g/ha [1, 5]: 30 to 44% | pest or weed control at 140 g/ha [1, 5]: 45 to 59% | pest or weed control at 70 g/ha [1, 6]: 0 to 29% | pest or weed control at 140 g/ha [1, 6]: 0 to 29% | pest or weed control at 70 g/ha [1, 7]: 30 to 44% | pest or weed control at 140 g/ha [1, 7]: 45 to 59% | pest or weed control at 70 g/ha [1, 8]: 45 to 59% | pest or weed control at 140 g/ha [1, 8]: 60 to 74% | pest or weed control at 70 g/ha [1, 9]: 45 to 59% | pest or weed control at 140 g/ha [1, 9]: 60 to 74% | pest or weed control at 70 g/ha [1, 10]: 60 to 74% | pest or weed control at 140 g/ha [1, 10]: 75 to 84% | pest or weed control at 70 g/ha [2, 11]: 95 to 100% | pest or weed control at 140 g/ha [2, 11]: 95 to 100% | pest or weed control at 70 g/ha [2, 12]: 95 to 100% | pest or weed control at 140 g/ha [2, 12]: 95 to 100% | pest or weed control at 70 g/ha [2, 13]: 95 to 100% | pest or weed control at 140 g/ha [2, 13]: 95 to 100% | pest or weed control at 70 g/ha [2, 14]: 95 to 100% | pest or weed control at 140 g/ha [2, 14]: 95 to 100% | pest or weed control at 70 g/ha [2, 15]: 75 to 84% | pest or weed control at 140 g/ha [2, 15]: 75 to 84% | pest or weed control at 70 g/ha [2, 16]: 95 to 100% | pest or weed control at 140 g/ha [2, 16]: 95 to 100% | pest or weed control at 70 g/ha [2, 17]: 85 to 94% | pest or weed control at 140 g/ha [2, 17]: 95 to 100%

melting point: 138 to 141 °C
Structure (SMILES): COC(=O)c1nc(-c2ccc(C(F)(F)F)nc2F)cc(N)c1Cl [Compound 74]
pest or weed control at 70 g/ha [1, 3]: 0 to 29% | pest or weed control at 140 g/ha [1, 3]: 0 to 29% | pest or weed control at 70 g/ha [1, 4]: 0 to 29% | pest or weed control at 140 g/ha [1, 4]: 0 to 29% | pest or weed control at 70 g/ha [1, 5]: 0 to 29% | pest or weed control at 140 g/ha [1, 5]: 45 to 59% | pest or weed control at 70 g/ha [1, 6]: 0 to 29% | pest or weed control at 140 g/ha [1, 6]: 0 to 29% | pest or weed control at 70 g/ha [1, 7]: 0 to 29% | pest or weed control at 140 g/ha [1, 7]: 0 to 29% | pest or weed control at 70 g/ha [1, 8]: 0 to 29% | pest or weed control at 140 g/ha [1, 8]: 45 to 59% | pest or weed control at 70 g/ha [1, 9]: 0 to 29% | pest or weed control at 140 g/ha [1, 9]: 0 to 29% | pest or weed control at 70 g/ha [1, 10]: 0 to 29% | pest or weed control at 140 g/ha [1, 10]: 30 to 44% | pest or weed control at 70 g/ha [2, 11]: 85 to 94% | pest or weed control at 140 g/ha [2, 11]: 95 to 100% | pest or weed control at 70 g/ha [2, 13]: 30 to 44% | pest or weed control at 140 g/ha [2, 13]: 45 to 59% | pest or weed control at 70 g/ha [2, 14]: 75 to 84% | pest or weed control at 140 g/ha [2, 14]: 85 to 94% | pest or weed control at 70 g/ha [2, 15]: 0 to 29% | pest or weed control at 140 g/ha [2, 15]: 0 to 29% | pest or weed control at 70 g/ha [2, 16]: 45 to 59% | pest or weed control at 140 g/ha [2, 16]: 60 to 74% | pest or weed control at 70 g/ha [2, 17]: 0 to 29% | pest or weed control at 140 g/ha [2, 17]: 0 to 29%

melting point: 165 to 166 °C
Structure (SMILES): COC(=O)c1nc(-c2ccc(C)nc2F)c(F)c(N)c1Cl [Compound 76]
pest or weed control at 70 g/ha [1, 3]: 0 to 29% | pest or weed control at 140 g/ha [1, 3]: 0 to 29% | pest or weed control at 70 g/ha [1, 4]: 75 to 84% | pest or weed control at 140 g/ha [1, 4]: 85 to 94% | pest or weed control at 70 g/ha [1, 5]: 75 to 84% | pest or weed control at 140 g/ha [1, 5]: 85 to 94% | pest or weed control at 70 g/ha [1, 6]: 0 to 29% | pest or weed control at 140 g/ha [1, 6]: 0 to 29% | pest or weed control at 70 g/ha [1, 7]: 45 to 59% | pest or weed control at 140 g/ha [1, 7]: 60 to 74% | pest or weed control at 70 g/ha [1, 8]: 45 to 59% | pest or weed control at 140 g/ha [1, 8]: 45 to 59% | pest or weed control at 70 g/ha [1, 9]: 30 to 44% | pest or weed control at 140 g/ha [1, 9]: 45 to 59% | pest or weed control at 70 g/ha [1, 10]: 0 to 29% | pest or weed control at 140 g/ha [1, 10]: 95 to 100% | pest or weed control at 70 g/ha [2, 11]: 85 to 94% | pest or weed control at 140 g/ha [2, 11]: 85 to 94% | pest or weed control at 70 g/ha [2, 12]: 95 to 100% | pest or weed control at 140 g/ha [2, 12]: 95 to 100% | pest or weed control at 70 g/ha [2, 13]: 85 to 94% | pest or weed control at 140 g/ha [2, 13]: 95 to 100% | pest or weed control at 70 g/ha [2, 14]: 95 to 100% | pest or weed control at 140 g/ha [2, 14]: 95 to 100% | pest or weed control at 70 g/ha [2, 15]: 95 to 100% | pest or weed control at 70 g/ha [2, 16]: 85 to 94% | pest or weed control at 140 g/ha [2, 16]: 95 to 100% | pest or weed control at 70 g/ha [2, 17]: 0 to 29% | pest or weed control at 140 g/ha [2, 17]: 0 to 29%

melting point: 136 to 142 °C
Structure (SMILES): COC(=O)c1nc(-c2ccc(Cl)c(Cl)c2C)cc(N)c1Cl [Compound 77]
pest or weed control at 70 g/ha [1, 3]: 0 to 29% | pest or weed control at 140 g/ha [1, 3]: 0 to 29% | pest or weed control at 70 g/ha [1, 4]: 0 to 29% | pest or weed control at 140 g/ha [1, 4]: 0 to 29% | pest or weed control at 70 g/ha [1, 5]: 0 to 29% | pest or weed control at 140 g/ha [1, 5]: 0 to 29% | pest or weed control at 70 g/ha [1, 6]: 0 to 29% | pest or weed control at 140 g/ha [1, 6]: 0 to 29% | pest or weed control at 70 g/ha [1, 7]: 0 to 29% | pest or weed control at 140 g/ha [1, 7]: 0 to 29% | pest or weed control at 70 g/ha [1, 8]: 0 to 29% | pest or weed control at 140 g/ha [1, 8]: 0 to 29% | pest or weed control at 70 g/ha [1, 9]: 0 to 29% | pest or weed control at 140 g/ha [1, 9]: 0 to 29% | pest or weed control at 70 g/ha [1, 10]: 0 to 29% | pest or weed control at 140 g/ha [1, 10]: 0 to 29% | pest or weed control at 70 g/ha [2, 11]: 95 to 100% | pest or weed control at 140 g/ha [2, 11]: 95 to 100% | pest or weed control at 70 g/ha [2, 12]: 95 to 100% | pest or weed control at 140 g/ha [2, 12]: 95 to 100% | pest or weed control at 70 g/ha [2, 13]: 95 to 100% | pest or weed control at 140 g/ha [2, 13]: 95 to 100% | pest or weed control at 70 g/ha [2, 14]: 95 to 100% | pest or weed control at 140 g/ha [2, 14]: 95 to 100% | pest or weed control at 70 g/ha [2, 15]: 0 to 29% | pest or weed control at 140 g/ha [2, 15]: 0 to 29% | pest or weed control at 70 g/ha [2, 16]: 45 to 59% | pest or weed control at 140 g/ha [2, 16]: 60 to 74% | pest or weed control at 70 g/ha [2, 17]: 0 to 29% | pest or weed control at 140 g/ha [2, 17]: 0 to 29%
